From PubChem BioAssay AID1845198 (Molecular Pharmacology Branch, DTP, NCI, 2023)
Where “and” joins values, the source holds several entries; their conditions need not be identical. Equal entries are not always repeated.

System: 425362-245-T-J1 tumor spheroids, viability % test/control
Experiment: Anticancer human tumor 425362-245-T-J1 patient-derived melanoma cell line growth inhibition
Conditions: spheroids with HUVEC and MSC; for viability, T/C: stronger effect = lower value
Outline: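 Complex tumor spheroids combined malignant cells with endothelial cells and mesenchymal stem cells. DNA-damaging drugs and DNA repair inhibitors were tested alone and in combination, at half-log dilutions down from clinical Cmax (top 10 microM if Cmax unknown), 0.25% DMSO final.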
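Also: spheroids exposed to agents for 7 days.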

COc1cc(C)[nH]c(=O)c1CN1CCc2c(Cl)cc(C(OC)C3COC3)c(Cl)c2C1=O (configuration not stated) + CC[C@@]1(O)C(=O)OCc2c1cc1n(c2=O)Cc2cc3c(CN(C)C)c(O)ccc3nc2-1
IC50 (curve of first compound, second compound 0.003 µM): > 10 µM | IC50 (curve of first compound, second compound 0.00949 µM): > 10 µM | IC50 (curve of first compound, second compound 0.03 µM): < 0.0316 µM | IC50 (curve of first compound, second compound 0.0949 µM): < 0.0316 µM | IC50 (curve of first compound, second compound 0.3 µM): < 0.0316 µM | viability, T/C (second compound 0.003 µM, first compound 0.0316 µM): 98.7% | viability, T/C (second compound 0.003 µM, first compound 0.1 µM): 102% | viability, T/C (second compound 0.003 µM, first compound 0.316 µM): 100% | viability, T/C (second compound 0.003 µM, first compound 1 µM): 94.3% | viability, T/C (second compound 0.003 µM, first compound 3.16 µM): 78.6% | viability, T/C (second compound 0.003 µM, first compound 10 µM): 79.5% | viability, T/C (second compound 0.00949 µM, first compound 0.0316 µM): 91% | viability, T/C (second compound 0.00949 µM, first compound 0.1 µM): 89.6% | viability, T/C (second compound 0.00949 µM, first compound 0.316 µM): 85.6% | viability, T/C (second compound 0.00949 µM, first compound 1 µM): 80.6% | viability, T/C (second compound 0.00949 µM, first compound 3.16 µM): 75.8% | viability, T/C (second compound 0.00949 µM, first compound 10 µM): 59.5% | viability, T/C (second compound 0.03 µM, first compound 0.0316 µM): 53.7% | viability, T/C (second compound 0.03 µM, first compound 0.1 µM): 37.2% | viability, T/C (second compound 0.03 µM, first compound 0.316 µM): 46.5% | viability, T/C (second compound 0.03 µM, first compound 1 µM): 47.5% | viability, T/C (second compound 0.03 µM, first compound 3.16 µM): 29.9% | viability, T/C (second compound 0.03 µM, first compound 10 µM): 21.6% | viability, T/C (second compound 0.0949 µM, first compound 0.0316 µM): 7.06% | viability, T/C (second compound 0.0949 µM, first compound 0.1 µM): 7.25% | viability, T/C (second compound 0.0949 µM, first compound 0.316 µM): 6.93% | viability, T/C (second compound 0.0949 µM, first compound 1 µM): 7.04% | viability, T/C (second compound 0.0949 µM, first compound 3.16 µM): 5.23% | viability, T/C (second compound 0.0949 µM, first compound 10 µM): 3.44% | viability, T/C (second compound 0.3 µM, first compound 0.0316 µM): 1.81% | viability, T/C (second compound 0.3 µM, first compound 0.1 µM): 2.03% | viability, T/C (second compound 0.3 µM, first compound 0.316 µM): 1.77% | viability, T/C (second compound 0.3 µM, first compound 1 µM): 1.79% | viability, T/C (second compound 0.3 µM, first compound 3.16 µM): 1.76% | viability, T/C (second compound 0.3 µM, first compound 10 µM): 1.76%

Cc1cc(C)c(CNC(=O)c2cc(-c3ccc(CN4CCOCC4)cc3)cc3c2cnn3C2CCCC2)c(=O)[nH]1 + Cn1nnc2c(C(N)=O)ncn2c1=O
IC50 (curve of first compound, second compound 1 µM): 2.97 µM | IC50 (curve of first compound, second compound 3.16 µM): 3.22 µM | IC50 (curve of first compound, second compound 10 µM): 4.59 µM | IC50 (curve of first compound, second compound 31.6 µM): 3.07 µM | IC50 (curve of first compound, second compound 100 µM): 1.47 µM | viability, T/C (second compound 1 µM, first compound 0.0316 µM): 90.2% | viability, T/C (second compound 1 µM, first compound 0.1 µM): 100% | viability, T/C (second compound 1 µM, first compound 0.316 µM): 90.8% | viability, T/C (second compound 1 µM, first compound 1 µM): 80.7% | viability, T/C (second compound 1 µM, first compound 3.16 µM): 48.4% | viability, T/C (second compound 1 µM, first compound 10 µM): 11.2% | viability, T/C (second compound 3.16 µM, first compound 0.0316 µM): 110% | viability, T/C (second compound 3.16 µM, first compound 0.1 µM): 107% | viability, T/C (second compound 3.16 µM, first compound 0.316 µM): 105% | viability, T/C (second compound 3.16 µM, first compound 1 µM): 91.7% | viability, T/C (second compound 3.16 µM, first compound 3.16 µM): 50.5% | viability, T/C (second compound 3.16 µM, first compound 10 µM): 14.6% | viability, T/C (second compound 10 µM, first compound 0.0316 µM): 102% | viability, T/C (second compound 10 µM, first compound 0.1 µM): 106% | viability, T/C (second compound 10 µM, first compound 0.316 µM): 114% | viability, T/C (second compound 10 µM, first compound 1 µM): 85.4% | viability, T/C (second compound 10 µM, first compound 3.16 µM): 69.6% | viability, T/C (second compound 10 µM, first compound 10 µM): 13.1% | viability, T/C (second compound 31.6 µM, first compound 0.0316 µM): 104% | viability, T/C (second compound 31.6 µM, first compound 0.1 µM): 116% | viability, T/C (second compound 31.6 µM, first compound 0.316 µM): 100% | viability, T/C (second compound 31.6 µM, first compound 1 µM): 85.4% | viability, T/C (second compound 31.6 µM, first compound 3.16 µM): 49.3% | viability, T/C (second compound 31.6 µM, first compound 10 µM): 10.9% | viability, T/C (second compound 100 µM, first compound 0.0316 µM): 94.6% | viability, T/C (second compound 100 µM, first compound 0.1 µM): 91.4% | viability, T/C (second compound 100 µM, first compound 0.316 µM): 87.4% | viability, T/C (second compound 100 µM, first compound 1 µM): 59.6% | viability, T/C (second compound 100 µM, first compound 3.16 µM): 28.6% | viability, T/C (second compound 100 µM, first compound 10 µM): 6.56%

CC(C)n1c(=O)n(C)c2cnc3cc(F)c(-c4ccc(OCCCN5CCCCC5)nc4)cc3c21
viability, T/C (compound 0.0316 µM): 56.5% and 67.4% and 67.2% | viability, T/C (compound 0.1 µM): 43.4% and 60.3% and 69.2% | viability, T/C (compound 0.316 µM): 44.1% and 39.9% and 36.1% | viability, T/C (compound 1 µM): 27.5% and 20.1% and 23.2% | viability, T/C (compound 3.16 µM): 17.4% and 14.7% and 14.3% | viability, T/C (compound 10 µM): 7.66% and 5.49% and 5.26% | IC50 (curve of compound): 0.0721 µM and 0.175 µM and 0.198 µM
